PubChem BioAssay AID1963423 (Molecular Pharmacology Branch, DTP, NCI, 2024)

Tested on: 439559-082-T-J2-PDC complex spheroid growth
Test: Anticancer human tumor 439559-082-T-J2-PDC patient-derived colon adenocarcinoma cell line growth inhibition [Asc]
Settings: for IC50: curve of first compound; for viability, T/C: stronger effect = lower value; active means viability on the fitted dose curve at most 10% of control; inactive means the rest
Experimental: Multicellular complex tumor spheroid response to apoptosis pathway targeting inhibitors Alrizomadlin, Pelcitoclax, and Dasminapant in combination with a variety of drugs and investigational agents in selected tumor cell lines
The MDM2 inhibitor alrizomadlin, the Bcl-2/Bcl-xL inhibitor pelcitoclax, and the IAPs inhibitor dasminapant were evaluated both individually and in combination with standard of care and investigational anticancer small molecules within a complex spheroid model of solid tumors. . Complex spheroids include a stromal component modeled by human endothelial cells (HUVEC) and fibroblasts modeled by human mesenchymal stem cells (MSCs). The concentration ranges selected for each drug and investigational agent were based upon clinically achievable concentrations if the clinical Cmax of the agent was known.
Compounds. The drugs and investigational agents: alrizomadlin (APG-115; NSC831270), pelcitoclax (APG-1252; NSC835773), dasminapant (APG-1387;NSC834197), TAK-243 (NSC785004), copanlisib (NSC809693), olaparib (NSC753686), talazoparib (NSC767125), cobimetinib (NSC 768068), eltanexor (KPT-8602, NSC 794443), abemaciclib (NSC 768073), sotorasib (NSC818433), adagrasib (NSC 831453), MRTX-1133 (NSC 836407), Iadademestat (ORY1001, NSC 806812), and RMC-4630 (NSC839698), were obtained from the NCI Developmental Therapeutics Program Chemical Repository. The FDA-approved anticancer drug set is available from the Developmental Therapeutics Program at https://dtp.cancer.gov/organization/dscb/obtaining/available plates.htm. […] The stock solutions were prepared in dimethyl sulfoxide (DMSO, Sigma-Aldrich, St. Louis, MO, cat. D2650) at 800-fold the tested concentration and stored at -70 degrees C prior to their use. All drugs and investigational agents were tested over a range starting from a high concentration at or near the clinical Cmax and decreasing in half-log increments. If the clinical Cmax for an agent had not been determined, the highest concentration tested was 10 microM.
The patient-derived cancer (PDC) cell lines include five colon adenocarcinomas: 186277-243-T-J2-PDC, 616215-338-R-J1-PDC, 439559-082-T-J2-PDC, 463943-066-T-J2-PDC, and 519858-162-T-J1-PDC; three pancreatic carcinomas: 323965-272-R-J2-PDC, 521955-158-R6-J3-PDC, and 521955-158-R2-J5-PDC; two uterine sarcomas: 327498-152-R-J2-PDC and 993429-296-R-J1-PDC; two rhabdomyosarcomas: 755483-174-R-J1-PDC and 772245-204-R-J1-PDC; two soft tissue sarcomas: 126254-015-R-J1-PDC and 494315-158-R-J1-PDC; two malignant fibrous histiocytomas: 317291-083-R-J1-PDC and 596521-263-R-J1-PDC; two breast carcinomas: 171881-019-R-J1-PDC and 885512-296-R-J2-PDC; and one ovarian carcinoma: 6556581-035-R-J-PDC were obtained from the NCI PDMR, (https://pdmr.cancer.gov). The established cell lines HSSY-2 synovial sarcoma (RRID:CVCL 8719), SYO-1 synovial sarcoma (RRID:CVCL_7146), MPNST malignant peripheral neural sheath tumor were obtained from the Sloan Kettering Institute. The following established cell lines were purchased from the American Type Culture Collection (ATCC, Manassas, VA), Sor the received from the NCI repository:, PANC-1 pancreatic carcinoma (CRL-1469, RRID:CVCL_0480), OVCAR-5 ovarian carcinoma (RRID:CVCL_1628), OVCAR-8 ovarian carcinoma (RRID:CVCL_1629), , MCF-7 breast carcinoma (CRL-12584, RRID:CVCL_0031), MDA-MB-231 breast carcinoma (CRL-12532, RRID:CVCL_0062), NCI-H1876 small cell lung carcinoma (CRL-5902, RRID:CVCL_1503), NCI-H510A small cell lung carcinoma (HTB-184, RRID:CVCL_1565), NCI-H1417 (CRL-5869, RRID:CVCL_1469), and NCI-H196 small cell lung carcinoma (CRL-5823, RRID:CVCL_1509). Dr. Peter Houghton (Greehey Children's Cancer Research Institute, University of Texas Health Science Center, San Antonio, TX) provided Rh-18 rhabdomyosarcoma (RRID:CVCL_1659). Pooled donor human umbilical vein endothelial cells (HUVEC, Lonza, cat. CC-2519) and human mesenchymal stem cells (hMSC, Lonza, cat. PT-2501) were purchased from Lonza (Walkersville, MD).
Cell Culture. […]

[1] = second compound 0.03 µM, first compound 0.0316 µM
[2] = second compound 0.03 µM, first compound 0.1 µM
[3] = second compound 0.0949 µM, first compound 0.0316 µM
[4] = second compound 0.0949 µM, first compound 0.1 µM
[5] = second compound 0.3 µM, first compound 0.0316 µM
[6] = second compound 0.3 µM, first compound 0.1 µM
[7] = second compound 0.949 µM, first compound 0.0316 µM
[8] = second compound 0.949 µM, first compound 0.1 µM
[9] = second compound 3 µM, first compound 0.0316 µM
[10] = second compound 3 µM, first compound 0.1 µM
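Further: spheroids exposed to agents for 7 days starting day 3 after seeding.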
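Wherever viability, T/C is given: percent of DMSO vehicle control viability with 100% = vehicle.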

Cn1ncnc1[C@H]1c2n[nH]c(=O)c3cc(F)cc(c23)N[C@@H]1c1ccc(F)cc1 + CCN1C(C(=O)NC23CCC(C(=O)O)(CC2)CC3)C(c2cccc(Cl)c2F)C2(C(=O)Nc3cc(Cl)ccc32)C12CCCCC2
inactive: viability, T/C (second compound 0.03 µM, first compound 0.000316 µM) 106% | viability, T/C (second compound 0.03 µM, first compound 0.001 µM) 109% | viability, T/C (second compound 0.03 µM, first compound 0.00316 µM) 103% | viability, T/C (second compound 0.03 µM, first compound 0.01 µM) 100% | viability, T/C [1] 101% | viability, T/C [2] 95.3% | viability, T/C (second compound 0.0949 µM, first compound 0.000316 µM) 103% | viability, T/C (second compound 0.0949 µM, first compound 0.001 µM) 104% | viability, T/C (second compound 0.0949 µM, first compound 0.00316 µM) 106% | viability, T/C (second compound 0.0949 µM, first compound 0.01 µM) 83.4% | viability, T/C [3] 94.6% | viability, T/C [4] 96.6% | viability, T/C (second compound 0.3 µM, first compound 0.000316 µM) 98.8% | viability, T/C (second compound 0.3 µM, first compound 0.001 µM) 113% | viability, T/C (second compound 0.3 µM, first compound 0.00316 µM) 109% | viability, T/C (second compound 0.3 µM, first compound 0.01 µM) 86.2% | viability, T/C [5] 96.2% | viability, T/C [6] 101% | viability, T/C (second compound 0.949 µM, first compound 0.000316 µM) 107% | viability, T/C (second compound 0.949 µM, first compound 0.001 µM) 111% | viability, T/C (second compound 0.949 µM, first compound 0.00316 µM) 108% | viability, T/C (second compound 0.949 µM, first compound 0.01 µM) 99% | viability, T/C [7] 88.3% | viability, T/C [8] 103% | viability, T/C (second compound 3 µM, first compound 0.000316 µM) 89% | viability, T/C (second compound 3 µM, first compound 0.001 µM) 94.7% | viability, T/C (second compound 3 µM, first compound 0.00316 µM) 101% | viability, T/C (second compound 3 µM, first compound 0.01 µM) 86.6% | viability, T/C [9] 84.4% | viability, T/C [10] 91.6%
> 0.1 µM: IC50 (second compound 0.03 µM) | IC50 (second compound 0.0949 µM) | IC50 (second compound 0.3 µM) | IC50 (second compound 0.949 µM) | IC50 (second compound 3 µM)

O=C(c1cc(Cc2n[nH]c(=O)c3ccccc23)ccc1F)N1CCN(C(=O)C2CC2)CC1 + CCN1C(C(=O)NC23CCC(C(=O)O)(CC2)CC3)C(c2cccc(Cl)c2F)C2(C(=O)Nc3cc(Cl)ccc32)C12CCCCC2
inactive: viability, T/C [1] 106% | viability, T/C [2] 103% | viability, T/C (second compound 0.03 µM, first compound 0.316 µM) 105% | viability, T/C (second compound 0.03 µM, first compound 1 µM) 87.5% | viability, T/C (second compound 0.03 µM, first compound 3.16 µM) 97.1% | viability, T/C (second compound 0.03 µM, first compound 10 µM) 87.8% | viability, T/C [3] 104% | viability, T/C [4] 113% | viability, T/C (second compound 0.0949 µM, first compound 0.316 µM) 104% | viability, T/C (second compound 0.0949 µM, first compound 1 µM) 96.5% | viability, T/C (second compound 0.0949 µM, first compound 3.16 µM) 93.4% | viability, T/C (second compound 0.0949 µM, first compound 10 µM) 100% | viability, T/C [5] 99.5% | viability, T/C [6] 112% | viability, T/C (second compound 0.3 µM, first compound 0.316 µM) 111% | viability, T/C (second compound 0.3 µM, first compound 1 µM) 85% | viability, T/C (second compound 0.3 µM, first compound 3.16 µM) 91% | viability, T/C (second compound 0.3 µM, first compound 10 µM) 94.9% | viability, T/C [7] 109% | viability, T/C [8] 107% | viability, T/C (second compound 0.949 µM, first compound 0.316 µM) 113% | viability, T/C (second compound 0.949 µM, first compound 1 µM) 89.6% | viability, T/C (second compound 0.949 µM, first compound 3.16 µM) 90.4% | viability, T/C (second compound 0.949 µM, first compound 10 µM) 94.9% | viability, T/C [9] 90.5% | viability, T/C [10] 100% | viability, T/C (second compound 3 µM, first compound 0.316 µM) 104% | viability, T/C (second compound 3 µM, first compound 1 µM) 86.7% | viability, T/C (second compound 3 µM, first compound 3.16 µM) 88.6% | viability, T/C (second compound 3 µM, first compound 10 µM) 88.8%
> 10 µM: IC50 (second compound 0.03 µM) | IC50 (second compound 0.0949 µM) | IC50 (second compound 0.3 µM) | IC50 (second compound 0.949 µM) | IC50 (second compound 3 µM)
